Measured values from EP1633390B1, “STABILIZED PHARMACEUTICAL GLP-1 PEPTIDE COMPOSITIONS” (NOVO NORDISK A/S, priority 2003, dated 2012).

Assay: Thioflavin T-test (ThT-test) of physical stability / fibril formation of the formulations
Format: physicochemical
Experimental: Physical stability of the formulations is evaluated by means of the Thioflavin T-test. The physical stability of the different formulations is characterized by their tendency to form fibrils. A method to determine the presence of fibrils is the Thioflavin T-test. The histological thiazole dye Thioflavin T (ThT) is used as an indicator of amyloid fibril formation. The method is based on the fluorescent characteristics of ThT. […] The physical stability of the formulations is evaluated by the ThT-test after storage of the formulation is top filled glass cartridges for various time periods.

physical stability (change in ThT) (Compound 1 adjusted to pH 8.0 before freeze drying, after 1 week and 1 months storage at 37°C): an increase in ThT is seen
physical stability (change in ThT) (Compound 1 adjusted to pH 9.5 and 11.5 before freeze drying, after 1 week and 1 months storage at 37°C): no increase in ThT is seen
physical stability (change in ThT) (formulation manufactured by raising pH above neutral pH (> 8) in the solution containing the drug substance, after 1 month at 37°C): no increase in ThT is seen
Structure (SMILES): CCCCCCCCCCCCCCCC(=O)N[C@@H](CCC(=O)NCCCC[C@H](NC(=O)[C@H](C)NC(=O)[C@H](C)NC(=O)[C@H](CCC(N)=O)NC(=O)CNC(=O)[C@H](CCC(=O)O)NC(=O)[C@H](CC(C)C)NC(=O)[C@H](Cc1ccc(O)cc1)NC(=O)[C@H](CO)NC(=O)[C@H](CO)NC(=O)[C@@H](NC(=O)[C@H](CC(=O)O)NC(=O)[C@H](CO)NC(=O)[C@@H](NC(=O)[C@H](Cc1ccccc1)NC(=O)[C@@H](NC(=O)CNC(=O)[C@H](CCC(=O)O)NC(=O)[C@H](C)NC(=O)[C@@H](N)Cc1cnc[nH]1)[C@@H](C)O)[C@@H](C)O)C(C)C)C(=O)N[C@@H](CCC(=O)O)C(=O)N[C@@H](Cc1ccccc1)C(=O)N[C@H](C(=O)N[C@@H](C)C(=O)N[C@@H](Cc1c[nH]c2ccccc12)C(=O)N[C@@H](CC(C)C)C(=O)N[C@H](C(=O)N[C@@H](CCCNC(=N)N)C(=O)NCC(=O)N[C@@H](CCCNC(=N)N)C(=O)NCC(=O)O)C(C)C)[C@@H](C)CC)C(=O)O [Compound 1, Arg^34, Lys^26 (N^∈-(γ-Glu(N^α-hexadecanoyl)))-GLP-1 (7-37)]
